Data on four compounds can be found in patent publication US20250003953A1, “Methods and Model Systems for Assessing Therapeutic Properties of Candidate Agents and Related Computer Readable Media and Systems” (The Regents of the University of California, priority 2021, published 2025).

One experiment concerns lipid peroxidation. The experiment is described as follows: Lipid peroxidation live cell probe dose curve and survival kinetics. In kind it is cell-based. The settings on record: dose curves. An excerpt: FIG. 7B plots gene expression of anti-ferroptotic genes for each cell line in response to increasing ARS1620 dosage. […] Lipid peroxidation and survival kinetics cross over around IC50 in all compounds indicating ARS1620 performs as a ferroptosis inducing agent.
Among this group of genes were FTH1 and FTL, the two components of the Ferritin Complex, which is responsible for sequestration of labile free iron. Using a lipid peroxidation live cell probe, lipid peroxidation—one of the hallmark phenotypes of ferroptosis—was measured in response to ARS-1620 treatment.

In experiment [1] the test system is H1373 KRAS.G12C mutant line. The experiment can be described thus: Multi-arm combination therapy in-vivo mouse study. Particulars: in combination with ARS1620; for synergy in tumor growth reduction: compared to null model of independence. Here is the method:
Bliss drug synergy is plotted and several compounds show significant drug synergy with multiple KRAS.G12C inhibitors.
Using the GENEVA dataset of ARS-1620 in a fourteen day drug treatment timeline in which drug resistance developed, gene expression indicators of resistance mechanisms were obtained (FIG. 4A). […] The strongest GENEVA prediction, mTOR resistance, was tested in a multi-arm in vivo mouse study and significant in vivo Bliss drug synergy and tumor reduction over time was found (FIG. 4C,D).
The GENEVA datasets were compared where GENEVA pools were drugged with the KRAS.G12C inhibitor ARS1620, conducted both in vitro and in vivo. Specifically, the in vitro data were compared against the in vivo data to look for differences and similarities attributable to the context of the model systems used. […] As a validation study, a combination therapy multi-arm in vivo mouse study was designed to test the efficacy of an EMT inhibitor, Galunisertib in combination with ARS1620.

Experiment [2] has as its system panel of G12C and non G12C lines pooled in vivo as xenografts. The experiment can be described thus: GENEVA combination therapy study in cell line pools in vivo as xenografts. Particulars: in combination with ARS1620; for drug synergy from cell cycle active/inactive proportions: G12C lines. Set-up: species or system mouse. Here is the method: Treatment conditions include Antimycin, ARS1620, Galunisertib, INK128, DMSO, ARS1620+Antimycin, ARS1620+Galunisertib, ARS1620+INK128. FIG. 8B utilizes GENEVA data from FIG. 8A for synergy calculations performed on cell cycle states in each drug condition singly and in combination estimated for G12C lines across drug conditions.
2 mL of Matrigel Basement Membrane reagent was added to the GENEVA pool prepared by growth rate balancing for a final concentration of 20M/mL. One hundred microliters of this solution was injected into NSG mice in a flank xenograft injection. Twenty-four hours later, mice harboring GENEVA tumors were drugged with the drug compound in a vehicle solution of 5% DMSO, 95% Labrasol. Mice were dosed by oral gavage four fourteen days with five days on, two days off. On the fourteenth day, mice were sacrificed, tumors harvested by homogenization with surgical shears and resuspended in 5 mg/mL Liberase™ Cell Dissociation Reagent in 1:1 DMEM: F12 cell media, DNAse I (10 U/uL). Tumors were incubated in a 37° C. incubator with shaking at 600 RPMs for 45 minutes for enzymatic dissociation and then spun down at 800 g for 5 minutes at 4° C. Dissociated tumors were resuspended in 100 uL 1×PBS.
A panel of G12C and non G12C lines pooled in vivo as xenografts was utilized to conduct combination therapy studies comparing ARS1620 with and without Galunisertib, INK128, and Antimycin for a total of eight different treatment conditions; these compounds were taken from our combination therapy discoveries and mechanistic understanding of mitochondrial action of ARS1620 (FIG. 8A).

Take `CN(C)c1nc(N(C)C)nc(N(C)C)n1` [Altretamine]: the “cross-over of survival and normalized lipid peroxidation curves” value with lipid peroxidation was “crossed over around the IC50 survival value”.

Consider `Cc1cccc(-c2nn3c(c2-c2ccnc4ccc(C(N)=O)cc24)CCC3)n1` [Galunisertib], for which the “synergy in tumor growth reduction” value in experiment [1] was “reduce growth synergistically”. Further, the “suppression of tumor growth (relative tumor volume)” value in experiment [1] (n=4-5 mice per condition) was “extremely effective in suppressing tumor growth”. For the same compound, in experiment [2], the “gene-level synergy on mitochondrial reads (linear model)” value is recorded as “further increase the synergistic decrease in mitochondrial reads” and the “drug synergy from cell cycle active/inactive proportions” value was “relative in vivo synergy”.

Turning to `CC(C)n1nc(-c2ccc3oc(N)nc3c2)c2c(N)ncnc21` [INK128], the “synergy in tumor growth reduction” value in experiment [1] is “synergistically reduce tumor growth in-vivo”. In experiment [2], the “gene-level synergy on mitochondrial reads (linear model)” value is “further increase the synergistic decrease in mitochondrial reads” and the “drug synergy from cell cycle active/inactive proportions” value is given as “relative in vivo synergy”.

For antimycin, the “drug synergy from cell cycle active/inactive proportions” value in experiment [2] was “antagonistic effect”.
